Measurements taken from US20250195491A1 (AEVIS BIO, INC., priority 2022, published 2025).

Assays:
[1] = Stability in human plasma (UPLC-MS quantification); type: in vitro ADME; settings: FIG. 7B
Description: To plot a standard calibration curve, the stock sample was diluted by half with acetonitrile from 125 to 0.39 μg/mL to prepare standard solutions for a total of 10 samples at different concentrations, and the calibration curve was plotted as shown in FIG. 7A.
For the experiment of verifying stability in plasma, 10 μL of the test drug prepared at a concentration of 100 μg/mL was added to 90 μL of human plasma and mixed for 30 seconds, and then immediately after the addition, the plasma-mixed test drug was incubated for 15, 30, 60, or 120 minutes to prepare samples. Afterward, 400 μL of 100% ethyl acetate was added to each sample and extracted using a vortex mixture for 1 minute. […] Initially, the mobile phase B was increased from 5% to 95% until 9 minutes and analyzed, the mobile phase B was maintained 95% until 12 minutes, and then the mobile phase B was lowered to 5% and equilibrated, and used in the subsequent analysis. the flow rate of the mobile phase was 0.3 mL/min, the sample injection volume was 2 μL, and the mass spectrometer was operated in the ESI-positive mode. The spray voltage was set to 3.5 kV, and the flow rates of the nitrogen sheath gas, auxiliary gas, and sweep gas were analyzed as 50, 10, and 1 (arbitrary units), respectively. […]

iNOS and COX-2 = iNOS and COX-2 immunoblotting in LPS-stimulated RAW264.7 cells; type: cell-based, mouse; settings: RAW264.7, 3.33, 10, or 30 μM, LPS 60 ng/ml 24 hours, FIG. 6A
Description: To confirm an oxidative stress suppression effect, the expression levels of iNOS and COX-2 were confirmed.
To this end, the RAW264.7 cell line, which is a mouse macrophage cell line, was purchased from the Korea Cell Line Bank (KCLB, Korea) and used, and cultured in a DMEM medium (Corning, MD, USA) supplemented with 10% fetal bovine serum (Corning, MD, USA), 100 U/mL of penicillin (Corning, MD, USA), and 100 100 μg/mL of streptomycin (Corning, MD, USA) at 37° C. in a 5% CO2 incubator.
(§1) After 1 hour, the cells were stimulated by treatment with 60 ng/ml of LPS, and further cultured for 24 hours. The cells were disrupted by adding a RIPA buffer containing a protease inhibitor cocktail (Thermo Fisher Scientific) and centrifuged at 14,000 rpm for 15 minutes at 4° C. to obtain a cell extract. Equal amounts of the cell extract were loaded, and proteins were separated through SDS-PAGE and then transferred to a PVDF film. The protein-transferred membrane was blocked using skim milk, incubated with a primary antibody for 3 hours at room temperature, and then incubated with an HRP-conjugated secondary antibody for 1 hour at room temperature.
The resulting product was washed with TBS-T three times between steps. […]

SALL4 = SALL4 degradation by immunoblotting in Tera-1 cells; type: cell-based, human; settings: 0.000128-10 μM, 4 hours, immunoblot, FIG. 4
Text: It has been reported that a cereblon (CRBN)-binding therapeutic such as a thalidomide-based compound can cause severe congenital abnormalities such as forelimb shortening or brachydactyly, which are closely associated with the decomposition of SALL4.
To this end, the Tera-1 cell line (HTB-105), which is a human embryonic carcinoma cell line, was purchased from the American Type Culture Collection (ATCC, Manassas, VA, USA) and used, and then cultured using a DMEM medium (Corning, MD, USA) supplemented with 10% fetal bovine serum (Corning, MD, USA), 100 U/mL of penicillin (Corning, MD, USA), and 100 100 μg/mL streptomycin (Corning, MD, USA) at 37° C. in a 5% CO2 incubator.
as §1, with “The” for “After 1 hour, the cells were stimulated by treatment with 60 ng/ml of LPS, and further cultured for 24 hours. The”, “Scientific),” for “Scientific)”, “by” for “through”, “membrane.” for “film.”, “temperature. The resulting product was washed with TBS-T three times between steps. […]” for “temperature.”

## Nc1cccc2c1C(=S)N(C1CCC(=O)NC1=O)C2=O (stereo not shown) [3-MP, 3-thiopomalidomide]
[1]; 0 to 120 minutes
  stability in human plasma over time: maintained without significant changes in plasma from 0 to 120 minutes
[1]; 0 minutes
  plasma level immediately after plasma addition: 80 µg/mL
iNOS and COX-2
  expression of iNOS and COX-2 (protein): inhibits the expression of iNOS and COX-2
SALL4
  decomposition of SALL4: less decomposition of SALL4 than pomalidomide
